From ChEMBL document CHEMBL3871306, “Design and synthesis of novel N-sulfonyl-2-indoles that behave as 5-HT6 receptor ligands with significant selectivity for D3 over D2 receptors” (Bioorg Med Chem, 2017)

Assays:
[1] = biological target: 5-hydroxytryptamine receptor 6 (Homo sapiens, UniProt P50406); assay: Displacement of [3H]-LSD from human 5-HT6R expressed in CHO cell membranes by radioligand binding assay
D(2) dopamine receptor [2] = biological target: T1, D(2) dopamine receptor (Homo sapiens, UniProt P14416); assay: Displacement of [3H]-methyl-spiperone from human dopamine D2L receptor expressed in HEK293 cell membranes after 1 hr by radioligand binding assay
T1 sequence (P14416 whole entry): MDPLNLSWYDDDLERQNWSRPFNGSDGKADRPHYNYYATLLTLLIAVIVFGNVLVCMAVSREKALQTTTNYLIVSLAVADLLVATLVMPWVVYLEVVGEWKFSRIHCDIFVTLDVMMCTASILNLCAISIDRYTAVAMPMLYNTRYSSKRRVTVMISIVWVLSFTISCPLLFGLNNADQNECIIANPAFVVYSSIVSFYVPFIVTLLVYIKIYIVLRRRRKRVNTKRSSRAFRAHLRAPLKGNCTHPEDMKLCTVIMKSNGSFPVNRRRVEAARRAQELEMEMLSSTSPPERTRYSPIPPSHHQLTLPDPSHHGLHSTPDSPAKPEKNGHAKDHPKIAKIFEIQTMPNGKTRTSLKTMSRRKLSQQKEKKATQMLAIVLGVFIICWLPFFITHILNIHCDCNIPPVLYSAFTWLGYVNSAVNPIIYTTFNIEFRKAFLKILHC

D(3) dopamine receptor = D(3) dopamine receptor (Homo sapiens, UniProt P35462); assay: Displacement of [3H]-methyl-spiperone from human dopamine D3 receptor expressed in CHO cell membranes after 1 hr by liquid scintillation counting
Chain of D(3) dopamine receptor (P35462 whole entry): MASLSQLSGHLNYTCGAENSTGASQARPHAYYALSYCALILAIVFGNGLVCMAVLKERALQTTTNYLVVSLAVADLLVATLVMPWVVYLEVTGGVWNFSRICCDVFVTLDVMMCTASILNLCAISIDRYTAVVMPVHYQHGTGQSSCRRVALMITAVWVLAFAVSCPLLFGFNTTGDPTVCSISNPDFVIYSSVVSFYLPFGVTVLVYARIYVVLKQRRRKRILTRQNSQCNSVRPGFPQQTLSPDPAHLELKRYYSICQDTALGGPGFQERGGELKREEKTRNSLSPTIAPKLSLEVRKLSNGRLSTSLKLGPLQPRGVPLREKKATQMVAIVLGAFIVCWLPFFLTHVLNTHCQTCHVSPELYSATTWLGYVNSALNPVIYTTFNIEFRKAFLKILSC

D(2) dopamine receptor [3] = biological target: T1, D(2) dopamine receptor; assay: Displacement of [3H]-methyl-spiperone from human dopamine D2L receptor expressed in HEK293 cell membranes at […] after 1 hr by radioligand binding assay

Chain of 5-hydroxytryptamine receptor 6 (P50406 whole entry): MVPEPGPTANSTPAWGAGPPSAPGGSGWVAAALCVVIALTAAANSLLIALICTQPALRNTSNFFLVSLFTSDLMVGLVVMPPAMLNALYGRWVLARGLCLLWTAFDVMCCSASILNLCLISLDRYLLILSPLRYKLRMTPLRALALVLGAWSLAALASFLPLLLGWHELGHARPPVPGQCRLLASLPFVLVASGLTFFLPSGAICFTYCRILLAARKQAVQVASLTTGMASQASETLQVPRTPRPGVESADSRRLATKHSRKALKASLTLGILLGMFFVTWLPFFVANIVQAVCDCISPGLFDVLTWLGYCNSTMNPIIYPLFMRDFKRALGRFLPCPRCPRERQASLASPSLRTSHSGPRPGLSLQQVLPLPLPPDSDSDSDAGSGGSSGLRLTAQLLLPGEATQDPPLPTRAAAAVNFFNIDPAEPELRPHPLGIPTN

Ki [1] [nM] | Ki (D(2) dopamine receptor [2]) [nM] | Ki (D(3) dopamine receptor) [nM] | inhibition (D(2) dopamine receptor [3]) [%] | SMILES
158 | > 10000 | 3160 | – | O=S(=O)(c1ccccc1)n1ccc2cc3c(cc21)[C@H]1CCNCC[C@@H]31
12.6 | – | 1260 | 22 | CN(C)[C@@H]1c2cc3ccn(S(=O)(=O)c4ccccc4)c3cc2[C@H]1CCO (relative stereo)
200 | 15800 | 1260 | – | CN[C@H]1c2c(ccc3c2ccn3S(=O)(=O)c2ccccc2)[C@@H]1CCO (relative stereo)
10 | – | 1260 | 30 | CN[C@H]1c2cc3ccn(S(=O)(=O)c4ccccc4)c3cc2[C@H]1CCO (relative stereo)
3.98 | 15800 | 2000 | – | CN[C@@H]1c2cc3ccn(S(=O)(=O)c4ccccc4)c3cc2[C@H]1CCO (relative stereo)
1 | 1000 | 251 | – | CNCC1Cc2ccc3c(ccn3S(=O)(=O)c3cccc4ccccc34)c21 (centres undefined)
39.8 | > 10000 | 398 | – | CN(C)[C@H]1c2cc3ccn(S(=O)(=O)c4ccccc4)c3cc2[C@H]1CCO (relative stereo)
126 | > 10000 | 1000 | – | CN[C@@H]1c2cc3c(ccn3S(=O)(=O)c3ccccc3)cc2[C@@H]1CCO (relative stereo)
79.4 | 251 | 501 | – | CC(=O)Nc1ccc(CCN(C)CC2Cc3ccc4c(ccn4S(=O)(=O)c4ccccc4)c32)cc1 (centres undefined)
7.94 | > 10000 | > 10000 | – | CN[C@H]1c2c(ccc3c2ccn3S(=O)(=O)c2ccccc2)[C@H]1CCO (relative stereo)
316 | – | 126 | 19 | CN(C)[C@H]1c2cc3c(ccn3S(=O)(=O)c3ccccc3)cc2[C@@H]1CCO (relative stereo)
316 | – | 631 | 20 | CN(C)[C@@H]1c2cc3c(ccn3S(=O)(=O)c3ccccc3)cc2[C@@H]1CCO (relative stereo)
50.1 | 794 | 1000 | – | O=S(=O)(c1ccccc1)n1ccc2c3c(ccc21)[C@H]1CCNCC[C@@H]31 (relative stereo)
158 | 6310 | 251 | – | CN[C@H]1c2cc3c(ccn3S(=O)(=O)c3ccccc3)cc2[C@@H]1CCO (relative stereo)
158 | > 10000 | 1260 | – | CN[C@H]1c2ccc3c(ccn3S(=O)(=O)c3ccccc3)c2[C@@H]1CCO (relative stereo)
1.58 | 2000 | 1260 | – | CNCC1Cc2ccc3c(ccn3S(=O)(=O)c3ccccc3)c21 (centres undefined)
1 | 2510 | 794 | – | CNCC1Cc2cc3ccn(S(=O)(=O)c4cccc5ccccc45)c3cc21 (centres undefined)
25.1 | > 10000 | > 10000 | – | CN[C@@H]1c2ccc3c(ccn3S(=O)(=O)c3ccccc3)c2[C@@H]1CCO
